This is an account of results in patent US8017792B2, “1-thio-D-glucitol derivatives” (Taisho Pharmaceutical Co., Ltd., priority 2005, dated 2011).

One data set addresses T1, Human SGLT2 (Homo sapiens, UniProt P31639).
T1 construct: expressed in transfected cells; host or cells: CHO-K1
T1 sequence (P31639 1-672): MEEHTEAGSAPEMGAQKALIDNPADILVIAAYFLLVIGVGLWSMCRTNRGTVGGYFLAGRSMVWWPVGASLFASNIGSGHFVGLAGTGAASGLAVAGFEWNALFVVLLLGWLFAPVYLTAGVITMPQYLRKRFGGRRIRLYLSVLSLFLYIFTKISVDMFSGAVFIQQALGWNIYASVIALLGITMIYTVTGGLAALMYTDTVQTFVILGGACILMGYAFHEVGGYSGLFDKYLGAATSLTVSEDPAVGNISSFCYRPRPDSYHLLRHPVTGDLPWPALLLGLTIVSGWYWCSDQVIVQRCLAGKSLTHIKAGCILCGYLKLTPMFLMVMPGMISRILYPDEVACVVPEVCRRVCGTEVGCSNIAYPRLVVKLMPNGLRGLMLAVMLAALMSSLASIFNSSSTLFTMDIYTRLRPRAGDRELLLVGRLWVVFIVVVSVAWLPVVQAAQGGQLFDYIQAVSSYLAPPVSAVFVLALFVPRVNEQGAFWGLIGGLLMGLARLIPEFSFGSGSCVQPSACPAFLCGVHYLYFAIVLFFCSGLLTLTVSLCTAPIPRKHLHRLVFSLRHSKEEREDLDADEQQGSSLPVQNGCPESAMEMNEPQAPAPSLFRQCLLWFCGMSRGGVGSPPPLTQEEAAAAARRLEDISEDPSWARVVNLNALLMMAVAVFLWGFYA
As to the kind of experiment: Sodium-dependent sugar uptake inhibition test in CHO-K1 cells stably expressing human SGLT2 (Test Example 2). The data set is classed as cell-based. The conditions noted are these: for IC50: CHO-K1 cells, [14C]methyl-α-D-glucopyranoside 1 mM, 37° C., one hour; for SGLT1/SGLT2: ratio of IC50 human SGLT1 to IC50 human SGLT2. How it is done:
(§1) Human SGLT1 sequence (NM_000343) was reverse-transcripted from human small intestinal mRNA, then amplified, and then introduced into pCMV-tag5A from Stratagene Corporation. Human SGLT2 sequence (NM_003041) was prepared from human nephric mRNA as with the above method, and then introduced into pcDNA3.1+hygro from Invitrogen Corporation. Each cloned sequence was confirmed to be identical with the reported sequence.
(§2) CHO-K1 cells were transfected with the human SGLT1 and human SGLT2 expression vectors using Lipofectamine 2000 (Invitrogen Corporation). SGLT expression cells were cultured in the presence of geneticin (SGLT1) or hygromycin B (SGLT2) of the concentration of 500 μg/mL to select resistant strains. Cells were obtained using sugar uptake specific activity as an index in the following system.
(§3) Cells stably expressing human SGLT1 and human SGLT2 were used in the sodium-dependent sugar uptake activity inhibition test. Cells were incubated in 1 mL of a pretreatment buffer solution (140 mM choline chloride, 2 mM KCl, 1 mM CaCl2, 1 mM MgCl2, 10 mM HEPES/5 mM Tris, pH 7.4) for 20 minutes. The pretreatment buffer solution was removed and 200 μL of an uptake buffer containing test compounds (methyl-α-D-glucopyranoside containing [^14C]methyl-α-D-glucopyranoside (0.1 mM for SGLT1 inhibition, 1 mM for SGLT2 inhibition), 140 mM NaCl, 2 mM KCl, 1 mM CaCl2, 1 mM MgCl2, 10 mM HEPES/5 mM Tris, pH 7.4) were added, and uptake reaction was performed at 37° C. for 30 minutes (SGLT1) or for one hour (SGLT2). After the reaction, cells were washed with 1 mL of a washing buffer (10 mM methyl-α-D-glucopyranoside, 140 mM choline chloride, 2 mM KCl, 1 mM CaCl2, 1 mM MgCl2, 10 mM HEPES/5 mM Tris, pH 7.4) twice and dissolved in 400 μL of 0.2 M NaOH solution. After Aquazole 2 (Perkin Elmer Corporation) was added and mixed well, radioactivity was measured with a liquid scintillation counter (Beckman Coulter Corporation). A buffer for uptake which contained no test compound was prepared as a control group. Another buffer solution for uptake containing choline chloride in place of NaCl was also prepared for basic uptake.

The target of the next data set is T2, Human SGLT1 (Homo sapiens, UniProt P13866).
T2 construct: expressed in transfected cells; host or cells: CHO-K1
T2 sequence (P13866 1-664): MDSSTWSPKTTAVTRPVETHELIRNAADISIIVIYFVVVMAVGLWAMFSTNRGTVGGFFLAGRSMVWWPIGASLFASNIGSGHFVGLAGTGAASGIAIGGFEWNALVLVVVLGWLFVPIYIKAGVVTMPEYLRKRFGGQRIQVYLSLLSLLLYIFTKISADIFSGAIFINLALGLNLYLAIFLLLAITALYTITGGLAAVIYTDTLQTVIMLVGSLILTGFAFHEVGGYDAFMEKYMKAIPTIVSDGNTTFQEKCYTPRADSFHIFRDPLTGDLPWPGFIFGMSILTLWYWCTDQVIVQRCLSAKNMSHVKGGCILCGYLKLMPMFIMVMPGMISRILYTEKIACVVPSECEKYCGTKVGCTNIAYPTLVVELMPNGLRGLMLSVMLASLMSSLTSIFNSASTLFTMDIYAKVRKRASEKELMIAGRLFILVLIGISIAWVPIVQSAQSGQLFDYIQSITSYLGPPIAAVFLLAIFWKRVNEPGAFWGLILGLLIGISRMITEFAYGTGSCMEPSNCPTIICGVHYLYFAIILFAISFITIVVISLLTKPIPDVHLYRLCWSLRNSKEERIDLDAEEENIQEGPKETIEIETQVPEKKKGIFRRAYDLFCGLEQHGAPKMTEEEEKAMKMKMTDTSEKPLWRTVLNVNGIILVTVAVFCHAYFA
Description: Sodium-dependent sugar uptake inhibition test in CHO-K1 cells stably expressing human SGLT1 (Test Example 2). The data set is classed as cell-based. The conditions noted are these: [14C]methyl-α-D-glucopyranoside 0.1 mM, 37° C., 30 minutes. How it is done:
as §1, §2, §3

The subject of data set [1] is rat kidney brush border membrane vesicles (BBMV). As to the kind of experiment: Glucose uptake inhibition in rat kidney brush border membrane vesicles (Test Example 1). The data set is classed as biochemical. To be noted: D-[6-3H]glucose 0.1 mM, 37° C., five seconds, read-out: IC50 (concentration at which glucose uptake was inhibited by 50%). How it is done: After 50 μL of a suspension (protein concentration: 4 mg/mL) of rat kidney brush border membrane vesicles (brush border membrane […]: BBMV) prepared following the method described in a document (Anal. Biochem., Vol. 201, Clause 301, 1984) was preincubated at 37° C. for two minutes, 150 μL of a reaction mixture which was a mixture of a test compound dissolved in DMSO (DMSO final concentration: 1%), 100 mM mannitol, 100 mM NaSCN or KSCN, 10 mM HEPES/Tris pH 7.4, D-glucose (final concentration: 0.1 mM) and 1 μCi of D-[6-^3H] glucose (Amersham) was added to this. After performing a reaction at 37° C. for five seconds, 1 mL of an ice cooled reaction terminating solution (150 mM NaCl, 10 mM HEPES/Tris pH 7.4, 0.3 mM phlorizin) was added to the reaction mixture to terminate the reaction, and BBMV was immediately separated by rapid filtration using a membrane filter (HAWP02500 having a pore size of 0.45 μm, Millipore). The membrane filter was washed three times with 4.5 mL of the ice cooled reaction terminating solution. After the membrane was dried sufficiently, radioactivity was measured with a liquid scintillation counter (Beckman) to quantify the amount of glucose taken in BBMV on the membrane filter.

For orientation: melting point means the temperature of the solid-liquid transition. In turn, `OC[C@H]1S[C@@H](c2cccc(Cc3cc4ccccc4s3)c2)[C@H](O)[C@@H](O)[C@@H]1O` [Compound 129, (1S)-1,5-Anhydro-1-[3-[(1-benzothien-2-yl)methyl]-phenyl]-1-thio-D-glucitol] gave a melting point of 159.5 to 160 °C. In addition, at Human SGLT2, the IC50 came out at 3000 nM and the SGLT1/SGLT2 worked out at 4.3. On Human SGLT1, this compound had an IC50 of 12800 nM.

With `CCOc1ccc(Cc2cccc([C@@H]3S[C@H](CO)[C@@H](O)[C@H](O)[C@H]3O)c2)cc1` [Compound 75, (1S)-1,5-Anhydro-1-[3-(4-ethoxybenzyl)phenyl]-1-thio-D-glucitol], the IC50 in data set [1] was determined as 1600 nM; at Human SGLT2, 2830 nM; against Human SGLT1 it was 27400 nM. The SGLT1/SGLT2 on Human SGLT2 was 9.7.

As to `COc1ccc([C@@H]2S[C@H](CO)[C@@H](O)[C@H](O)[C@H]2O)cc1Cc1cc2ccccc2s1` [Compound 127, (1S)-1,5-Anhydro-1-[3-[(1-benzothien-2-yl)methyl]-4-methoxyphenyl]-1-thio-D-glucitol], the melting point was 91 to 105 °C. In data set [1], the IC50 worked out at 350 nM. On Human SGLT2, the IC50 was 1120 nM and the SGLT1/SGLT2 turned out to be 0.6. Further, the IC50 on Human SGLT1 was 700 nM.

Consider `CCOc1ccc(Cc2cc([C@@H]3S[C@H](CO)[C@@H](O)[C@H](O)[C@H]3O)c(O)cc2O)cc1` [Compound 100, (1S)-1,5-Anhydro-1-[3-(4-ethoxybenzyl)-4,6-dihydroxyphenyl]-1-thio-D-glucitol], for which the melting point was in the range of 186 to 190 °C. In addition, on Human SGLT2, the IC50 came to 1520 nM and the SGLT1/SGLT2 turned out to be 2.9. In addition, the IC50 at Human SGLT1 amounted to 4400 nM.

Consider `COc1ccc(Cc2cc3ccccc3s2)cc1[C@@H]1S[C@H](CO)[C@@H](O)[C@H](O)[C@H]1O` [Compound 130, (1S)-1,5-Anhydro-1-[3-[(1-benzothien-2-yl)methyl]-6-methoxyphenyl]-1-thio-D-glucitol], for which the melting point fell in the range of 97.5 to 98 °C. On Human SGLT2, this compound yielded an IC50 of 2120 nM. In addition, at Human SGLT1, the IC50 was over 10000 nM.

Regarding `OC[C@H]1S[C@@H](c2ccc(Cl)c(Cc3cc4ccccc4s3)c2)[C@H](O)[C@@H](O)[C@@H]1O` [Compound 128, (1S)-1,5-Anhydro-1-[3-[(1-benzothien-2-yl)methyl]-4-chlorophenyl]-1-thio-D-glucitol], the melting point is 105 to 115 °C. The IC50 in data set [1] was 790 nM. Besides, on Human SGLT2, the IC50 turned out to be 140 nM and the SGLT1/SGLT2 turned out to be 4.4. At Human SGLT1, this compound yielded an IC50 of 600 nM.

In turn, `CCOc1ccc(Cc2cc([C@@H]3S[C@H](CO)[C@@H](O)[C@H](O)[C@H]3O)ccc2Cl)cc1F` [Compound 84, (1S)-1,5-Anhydro-1-[4-chloro-3-(3-fluoro-4-ethoxybenzyl)phenyl]-1-thio-D-glucitol] had a melting point of 73 to 81 °C. Further, on Human SGLT2, the IC50 came to 170 nM and the SGLT1/SGLT2 stood at 12.5. Further, at Human SGLT1, the IC50 is 2100 nM.

As for `CCOc1ccc(Cc2cc([C@@H]3S[C@H](CO)[C@@H](O)[C@H](O)[C@H]3O)ccc2Cl)cc1` [Compound 76, (1S)-1,5-Anhydro-1-[4-chloro-3-(4-ethoxybenzyl)phenyl]-1-thio-D-glucitol], the IC50 in data set [1] is 320 nM. Also, at Human SGLT2, the IC50 came out at 80 nM and the SGLT1/SGLT2 was determined as 14.6.

As for `CCOc1ccc(Cc2cc([C@@H]3S[C@H](CO)[C@@H](O)[C@H](O)[C@H]3O)ccc2Cl)cc1Cl` [Compound 85, (1S)-1,5-Anhydro-1-[4-chloro-3-(3-chloro-4-ethoxybenzyl)phenyl]-1-thio-D-glucitol], the melting point lay within 79 to 82 °C. Moreover, on Human SGLT2, the IC50 was found to be 1270 nM and the SGLT1/SGLT2 worked out at 4.8. The compound further returned an IC50 against Human SGLT1 of 6100 nM.

In the case of `CCOc1ccc(Cc2ccc(O)c([C@@H]3S[C@H](CO)[C@@H](O)[C@H](O)[C@H]3O)c2)cc1` [Compound 79, (1S)-1,5-Anhydro-1-[3-(4-ethoxybenzyl)-6-hydroxyphenyl]-1-thio-D-glucitol], the IC50 in data set [1] came out at 220 nM; at Human SGLT2 it was 370 nM; on Human SGLT1 it was 2700 nM. The SGLT1/SGLT2 on Human SGLT2 is recorded as 7.2.

In turn, `CCc1ccc(Cc2cccc([C@@H]3S[C@H](COCc4ccccc4)[C@@H](OCc4ccccc4)[C@H](OCc4ccccc4)[C@H]3OCc3ccccc3)c2)cc1` [Compound 1, (1S)-1,5-anhydro-2,3,4,6-tetra-O-benzyl-1-[3-(4-ethylbenzyl)phenyl]-1-thio-D-glucitol] returned a melting point of 100 to 102.5 °C.

As for `CCOc1cc(F)c(Cc2cc([C@@H]3S[C@H](CO)[C@@H](O)[C@H](O)[C@H]3O)ccc2Cl)cc1F` [Compound 83, (1S)-1,5-Anhydro-1-[4-chloro-3-(2,5-difluoro-4-ethoxybenzyl)phenyl]-1-thio-D-glucitol], the melting point lay in the range of 72 to 76 °C. Besides, on Human SGLT2, the IC50 came out at 30 nM and the SGLT1/SGLT2 worked out at 48.7. Moreover, the IC50 against Human SGLT1 was 1500 nM.
